For 17 compounds, IC50, Activity and inhibition results are on record in ChEMBL document CHEMBL5233269, “Anticancer potential of spirocompounds in medicinal chemistry: A pentennial expedition” (Eur J Med Chem, 2021).

For data set [1], the system named is A549. Description: Antiproliferative activity against human A549 cells. Type of data set: functional, cell-based.
Data set [2] deals with MCF7. Put plainly: Antiproliferative activity against human MCF7 cells. The class given is functional, cell-based.
In another data set the test system is K562. Put plainly: Antiproliferative activity against human K562 cells assessed as inhibition of cell viability. The class given is functional, cell-based.
The test system of data set [3] is MCF7. Put plainly: Antiproliferative activity against human MCF7 cells assessed as inhibition of cell viability. The class given is functional, cell-based.
The subject of data set [4] is PC-3. Description: Anticancer activity against human PC-3 cells at 100 uM relative to control. Type of data set: functional.
The test system of data set [5] is LNCaP. Put plainly: Anticancer activity against human LNCaP cells at 100 uM relative to control. Type of data set: functional.
In data set [6] the test system is HeLa. Description: Cytotoxicity against human HeLa cells. The class given is functional, cell-based.
A short description of data set [7]: Cytotoxicity against green monkey Vero cells. Type of data set: toxicity, cell-based. To be noted: green monkey (Chlorocebus sabaeus).
In a further data set the test system is B16-F10. Put plainly: Anticancer activity against mouse B16-F10 cells. The class given is functional, cell-based.
In data set [8] the test system is HeLa. Description: Anticancer activity against human HeLa cells assessed as inhibition of cell proliferation. The class given is functional, cell-based.
The next data set concerns 4T1. Put plainly: Anticancer activity against mouse 4T1 cells at 200 microg/ml measured after 48 hrs relative to control. Type of data set: functional.
In data set [9] the test system is HepG2. Put plainly: Anticancer activity against human HepG2 cells at 200 microg/ml measured after 48 hrs relative to control. Type of data set: functional.
Data set [10] addresses Tumour suppressor p53/oncoprotein Mdm2 (Homo sapiens) (UniProt P04637+Q00987). Description: Inhibition of MDM2/p53 (unknown origin) interaction at 10 uM relative to control. Type of data set: protein assay.
The nature of data set [11]: Anticancer activity against human MCF-10A cells assessed as reduction of cell growth. Type of data set: toxicity, cell-based.
For data set [12], the system named is PC-3. Description: Anticancer activity against human PC-3 cells assessed as reduction of cell growth. Type of data set: functional, cell-based.
The subject of the next data set is A-431. Put plainly: Anticancer activity against human A-431 cells. Type of data set: functional, cell-based.
In data set [13] the test system is MCF7. Put plainly: Anticancer activity against human MCF7 cells assessed as reduction of cell growth. Type of data set: functional, cell-based.
The subject of data set [14] is A549. Put plainly: Cytotoxicity against human A549 cells assessed as inhibition of tumor cell proliferation incubated for 72 hrs by MTT assay. The class given is functional, cell-based. Conditions: A549, 72 h. Background: Tetrazolium dyes change colour on reduction, which living cells bring about.
A further data set has as its system MGC-803. Description: Cytotoxicity against human MGC-803 cells assessed as inhibition of tumor cell proliferation incubated for 72 hrs by MTT assay. The class given is functional, cell-based. To be noted: MGC-803, 72 h.
The next data set concerns SMMC-7721. Description: Cytotoxicity against human SMMC-7721 cells assessed as inhibition of tumor cell proliferation incubated for 72 hrs by MTT assay. Type of data set: functional, cell-based. To be noted: SMMC-7721, 72 h.
The next data set relates to ECa-109 cell line. Description: Cytotoxicity against human EC109 cells assessed as inhibition of tumor cell proliferation incubated for 72 hrs by MTT assay. Conditions: ECa-109, 72 h. The class given is functional, cell-based.
Data set [15] has as its system MCF7. Description: Antiproliferative activity against human MCF7 cells incubated for 2 days by MTT assay. Type of data set: functional, cell-based. Conditions: MCF7, 48 h.
The subject of the next data set is HFF. Put plainly: Antiproliferative activity against human HFF cells incubated for 2 days by MTT assay. Type of data set: functional, cell-based. To be noted: 48 h.
A further data set concerns T47D. Description: Antiproliferative activity against human T47D cells incubated for 2 days by MTT assay. The class given is functional, cell-based. Conditions: 48 h.
The test system of data set [16] is HepG2. Description: Antiproliferative activity against human HepG2 cells incubated for 2 days by MTT assay. The class given is functional, cell-based. Conditions: HepG2, 48 h.
In the next data set the test system is HT-29. Put plainly: Antiproliferative activity against human HT-29 cells incubated for 2 days by MTT assay. The class given is functional, cell-based. To be noted: HT-29, 48 h.
In data set [17] the test system is LNCaP. Description: Anticancer activity against human LNCaP cells measured after 48 hrs by MTT assay. Type of data set: functional, cell-based.
For the next data set, the system named is DU-145. Description: Anticancer activity against human DU-145 cells measured after 48 hrs by MTT assay. Type of data set: functional, cell-based. Conditions: DU-145, 48 h.
In data set [18] the test system is MCF7. Description: Anticancer activity against human MCF7 cells measured after 48 hrs by MTT assay. Type of data set: functional, cell-based. To be noted: MCF7, 48 h.
In a further data set the test system is Ishikawa. Put plainly: Anticancer activity against human Ishikawa cells measured after 48 hrs by MTT assay. Type of data set: functional, cell-based.
The next data set relates to MDA-MB-231. Put plainly: Anticancer activity against human MDA-MB-231 cells measured after 48 hrs by MTT assay. The class given is functional, cell-based. To be noted: MDA-MB-231, 48 h.

Structures are written as SMILES. ≈ marks a conversion by molar mass, not a printed value.

Sequence of Tumour suppressor p53/oncoprotein Mdm2 (Homo sapiens) (P04637 whole entry, looked up): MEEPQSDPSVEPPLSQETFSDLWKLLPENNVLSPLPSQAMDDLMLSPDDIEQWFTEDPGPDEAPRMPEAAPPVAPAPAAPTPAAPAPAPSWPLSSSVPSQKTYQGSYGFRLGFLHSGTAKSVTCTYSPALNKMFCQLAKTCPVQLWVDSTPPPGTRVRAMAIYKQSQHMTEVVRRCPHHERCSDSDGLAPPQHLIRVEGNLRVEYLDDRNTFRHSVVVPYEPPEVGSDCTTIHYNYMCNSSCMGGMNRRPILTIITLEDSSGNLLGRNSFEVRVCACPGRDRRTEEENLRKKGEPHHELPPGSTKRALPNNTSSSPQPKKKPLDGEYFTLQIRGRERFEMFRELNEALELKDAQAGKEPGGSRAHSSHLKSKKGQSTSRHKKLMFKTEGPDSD
Sequence of Tumour suppressor p53/oncoprotein Mdm2 (Homo sapiens) (Q00987 whole entry, looked up): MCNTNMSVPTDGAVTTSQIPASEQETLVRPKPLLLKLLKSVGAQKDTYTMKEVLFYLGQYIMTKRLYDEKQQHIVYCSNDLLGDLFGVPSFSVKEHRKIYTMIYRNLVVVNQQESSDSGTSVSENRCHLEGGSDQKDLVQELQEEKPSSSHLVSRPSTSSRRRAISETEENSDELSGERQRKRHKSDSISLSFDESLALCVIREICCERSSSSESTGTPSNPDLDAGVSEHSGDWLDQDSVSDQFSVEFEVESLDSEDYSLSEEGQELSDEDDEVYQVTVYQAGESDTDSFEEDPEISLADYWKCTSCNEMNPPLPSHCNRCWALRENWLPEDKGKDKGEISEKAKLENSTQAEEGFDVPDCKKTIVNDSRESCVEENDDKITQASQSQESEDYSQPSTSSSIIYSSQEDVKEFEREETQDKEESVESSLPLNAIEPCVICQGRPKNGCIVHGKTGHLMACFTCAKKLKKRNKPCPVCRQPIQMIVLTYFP

For the compound `CCC(C)N1C(=O)C2(C(C#N)=C(N)Oc3c2c(=O)oc2ccccc32)c2ccccc21` (stereo not drawn), the IC50 with A549 [1] was 34.1 µM; with MCF7 [2], 37.6 µM.
Turning to `COc1ccc(/C=C2\CCCC3(C2=O)[C@@H]2CCCN2[C@@]2(C(=O)Nc4ccccc42)[C@H]3c2ccc(OC)cc2)cc1` (stereo partly drawn), the IC50 in the data set with K562 turned out to be 13.4 µM; in the data set on MCF7 [3], 18.6 µM.
With `Cc1ccccc1/C=C/C(=O)c1ccc(OP2(Oc3ccc(C(=O)/C=C/c4ccccc4)cc3)=NP3(=NP4(=N2)Oc2ccccc2-c2ccccc2O4)Oc2ccccc2-c2ccccc2O3)cc1` (stereo not drawn), the Activity in the data set with PC-3 [4] worked out at 42.36%; in the data set on LNCaP [5], 69.04%.
With `O=C(c1ccccn1)[C@@H]1[C@@H](c2ccc(Cl)cc2Cl)[C@H](c2ccccc2)NC12C(=O)Nc1ccccc12` (stereo partly drawn), the 50% inhibitory concentration (IC50) in the data set on HeLa [6] was 16 µg/mL (≈ 31.1 µM); in [7], 17 µg/mL (≈ 33 µM).
For the compound `CN1C(=O)N(C)C(=O)C2(CC3(C(=O)c4ccccc4C3=O)N(C)[C@H]2c2ccc(Br)cc2)C1=O`, the IC50 in the data set with B16-F10 was found to be 5.2 µM; in the data set on HeLa [8], 7.3 µM.
As for `COc1ccc(C(=O)[C@H]2[C@]3(C(=O)Nc4ccc(Cl)cc43)[C@@H]3c4ccccc4CCN3[C@@]23C(=O)Nc2ccc(Cl)cc23)cc1`, the inhibition at 200 µg/mL is 23.2% in the data set on 4T1 and 70.1% in the data set with HepG2 [9].
`NC(=O)C1CN(C(=O)N2CCCCC2)C2(C(=O)Nc3ccccc32)C1c1ccccc1O` (stereo not drawn) returned an inhibition in [10] of 65.4%.
Regarding `CC1(C)CC(=O)C2C(C1)N(c1ccccn1)C(=O)C21c2ccccc2NC2C(=O)CC(C)(C)CC21` (stereo not drawn), the IC50 in data set [11] was found to be 34.6 µM; in the data set with PC-3 [12] it was 73.1 µM; with A-431, 42.4 µM; in the data set on MCF7 [13], 9.88 µM.
For the compound `C[C@]12CC[C@H](O)CC1=CCC1C2CC[C@@]2(C)C1CC[C@@H]2C1=CC2(C(=O)Nc3ccc(F)cc32)C(C#N)=C(N)N1` (stereo partly drawn), the IC50 in the data set with A549 [14] turned out to be 21.3 µM; in the data set with MGC-803, 13.8 µM; in the data set with SMMC-7721, 10.9 µM; in the data set with ECa-109 cell line it was 2.6 µM.
As to `COc1ccc(C2=NOC3(Cc4ccccc4C3=O)C2c2ccc(S(C)(=O)=O)cc2)cc1OC` (stereo not drawn), the IC50 in the data set on MCF7 [15] was 53.7 µM; in the data set with HFF, 33.9 µM; with T47D it was 21.4 µM; in the data set with HepG2 [16], 0.059 µM; in the data set with HT-29 it was 94.6 µM.
`COc1cccc(N2C(=O)C3(c4ccccc4NC4C(=O)CC(C)(C)CC43)C3C(=O)CC(C)(C)CC32)c1` (stereo not drawn): the IC50 in [11] is 48.1 µM; with PC-3 [12], 86.1 µM; in the data set on A-431 it was 55.6 µM; in the data set with MCF7 [13], 9.62 µM.
In the case of `O=C1NC2(C3=C(C(=O)C4C=CC=CC4C3=O)c3ccccc32)c2ccccc21` (stereo not drawn), the IC50 came out at 0.67 µM with LNCaP [17]; 2.18 µM in the data set on DU-145; 0.82 µM in the data set on MCF7 [18]; 1.9 µM with Ishikawa; 6.88 µM with MDA-MB-231.
With `O=C1/C(=C/c2c(Cl)cccc2Cl)CCCC12[C@@H]1CCCN1[C@@]1(C(=O)Nc3ccccc31)[C@H]2c1c(Cl)cccc1Cl` (stereo partly drawn), the IC50 was 16.6 µM in the data set with K562 and 19.4 µM with MCF7 [3].
As to `O=C1NC2(C3=C(C(=O)C4C=CC=CC4C3=O)c3cc(Cl)ccc32)c2ccccc21` (stereo not drawn), the IC50 was 5.34 µM with LNCaP [17]; 1.68 µM in the data set with DU-145; 5.11 µM with MCF7 [18]; 1.39 µM in the data set with Ishikawa; 17.6 µM in the data set on MDA-MB-231.
As to `COc1cc(C2=NOC3(Cc4ccccc4C3=O)C2c2ccc(S(C)(=O)=O)cc2)cc(OC)c1OC` (stereo not drawn), the IC50 in the data set with MCF7 [15] was 24.2 µM; in the data set on HFF, 2.32 µM; in the data set with T47D, 0.07 µM; in the data set on HepG2 [16] it was 0.086 µM; in the data set with HT-29, 69.3 µM.
Regarding `Cc1ccc(C(=O)[C@H]2[C@]3(C(=O)Nc4ccc(F)cc43)[C@@H]3c4ccccc4CCN3[C@@]23C(=O)Nc2ccc(Cl)cc23)cc1`, the inhibition at 200 µg/mL was found to be 33.3% in the data set on 4T1 and 73.5% with HepG2 [9].
For `CC1(C)CC(=O)C2C(C1)N(c1ccccc1F)C(=O)C21c2ccccc2NC2C(=O)CC(C)(C)CC21` (stereo not drawn), the IC50 is 36.3 µM in data set [11], 84.9 µM in the data set on PC-3 [12], 52.1 µM in the data set on A-431 and 7.82 µM with MCF7 [13].

By IC50 is commonly meant the concentration that gives 50% inhibition. A word on the inhibition: it is the change of the read-out against control, counted positive when it falls.
